Results taken from patent publication US20240124504A1, “AROMATIC HETEROCYCLIC COMPOUND, AND PHARMACEUTICAL COMPOSITION AND APPLICATION THEREOF” (GT APEIRON THERAPEUTICS LIMITED, priority 2020, published 2024).

Tests used:
[1] = tested on: human breast cancer cells HCC70; test: Cell biological activity detection (CyQuant, 72 hours), HCC70; format: cell-based; conditions: Homo sapiens, HCC70, 72 h, incubation for 72 hours
How it was run: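 IC50 derived from CyQuant Direct nuclear staining (488 nm excitation) after 72 h compound exposure at 37 °C, 5% CO2. Compounds tested in 9 concentrations from 10 μM, 1:4 steps, 0.2% DMSO, on A2780 or HCC70 cells plated overnight at 2000/well in RPMI 1640 + 10% FBS.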

[2] = biological target: CDK7/cyclinH/MAT1 complex (Homo sapiens, UniProt P50613); test: In-vitro enzymatic inhibitory activity testing, CDK7 inhibition assay (Caliper EZ Reader II); format: biochemical; conditions: CDK7/cyclinH/MAT1 6 nM, 180 min at 27° C.
How it was run: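 Enzyme preincubated 10 min with compound, then peptide substrate plus ATP added in 80 mM MES pH 6.5, 10 mM MgCl2 buffer; 180 min at 27 °C, stopped with EDTA.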

[3] = Caco-2 membrane permeability and efflux rate; format: in vitro ADME; conditions: human, Caco-2, Caco-2, 5 μM; for Papp B→A at 2 h, 5 μM: basal end to top end; for efflux ratio at 2 h, 5 μM: read-out: ER (efflux rate); for Papp A→B at 2 h, 5 μM: top end to basal end
Method: The recovered Caco-2 cell suspension was seeded into a […] plate and cultured for 14-18 days. After being cultured for 14 days, the cells were fused and differentiated to be ready for a transport experiment. The Caco-2 cell plate was taken out from the incubator. Stock solutions of a to-be-tested compound and a control compound were formulated with DMSO and diluted with an HBSS (10 mM HEPES, pH 7.4) buffer to a final concentration of 5 μM. A test compound solution and a control drug solution were added to each well (top end) of an insert culture plate, and the HBSS (10 mM HEPES, pH 7.4) buffer was added to each well of a test compound receiving plate (basal end). When measuring the transport rate of the compound from the basal end to the top end, the test compound solution and the control drug solution were added to each well of the receiving plate (basal end), the HBSS (10 mM HEPES, pH 7.4) buffer solution was added to each well (top end) of the insert culture plate for the test compound solution, and incubation was carried out for 2 hours in a CO2 incubator at 37° C. After the transport experiment was completed, vortexing was carried out for 10 minutes at 1000 rpm. After sample quenching at each time point, LC/MS/MS analysis was carried out. A fluorescence value was measured after a two-hour transport experiment, a lucifer yellow solution was added in a transwell chamber (top end), a transport buffer solution was added in the basal end, and incubation was carried out for 30 minutes in the CO2 incubator at 37° C. The solution was taken out directly from the top end and the basal end (using basolateral wells) and transferred to a new 96-well plate. A cell fluorescence value was measured by a microplate reader (to detect membrane integrity), an excitation wavelength was […], and an emission wavelength was […]. All data were calculated by using Microsoft Excel, and a peak area was calculated according to chromatograms. An apparent permeability coefficient (Papp, unit: 10-6, cm/s) and an efflux rate (ER) of the compounds in Caco-2 cells were calculated by the specific concentrations of a receiving end and an administering end.

CDK9/cyclinT1 complex = CDK9/cyclinT1 complex (Homo sapiens, UniProt P50750); test: In-vitro enzymatic inhibitory activity testing, CDK9 inhibition assay (Caliper EZ Reader II); format: biochemical; conditions: CDK9/cyclinT1 8 nM, 180 min at 27° C.
How it was run: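 Phosphorylated and unphosphorylated fluorescent peptide were resolved by mobility-shift electrophoresis, with IC50 taken from a nonlinear regression of dose-response data. Reactions ran 180 min at 27 °C in MES buffer pH 6.5 with MgCl2, after 10 min enzyme–compound preincubation, using 8 nM CDK9/cyclinT1 and 5-FAM-CDK9tide.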

CDK9/cyclinT1 complex, sequence (P50750 whole entry, species assumed): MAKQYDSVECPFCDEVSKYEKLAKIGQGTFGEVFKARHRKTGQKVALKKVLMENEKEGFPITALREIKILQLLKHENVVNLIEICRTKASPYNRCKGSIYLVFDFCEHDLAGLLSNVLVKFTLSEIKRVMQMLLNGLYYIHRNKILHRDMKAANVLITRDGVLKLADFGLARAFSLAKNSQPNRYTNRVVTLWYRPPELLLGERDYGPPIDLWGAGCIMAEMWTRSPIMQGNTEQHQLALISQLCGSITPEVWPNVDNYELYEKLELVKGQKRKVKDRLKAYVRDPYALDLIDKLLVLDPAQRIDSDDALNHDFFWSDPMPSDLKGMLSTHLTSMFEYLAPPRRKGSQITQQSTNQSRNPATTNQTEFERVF
CDK9/cyclinT1 complex, sequence (O60563 whole entry partner, species assumed): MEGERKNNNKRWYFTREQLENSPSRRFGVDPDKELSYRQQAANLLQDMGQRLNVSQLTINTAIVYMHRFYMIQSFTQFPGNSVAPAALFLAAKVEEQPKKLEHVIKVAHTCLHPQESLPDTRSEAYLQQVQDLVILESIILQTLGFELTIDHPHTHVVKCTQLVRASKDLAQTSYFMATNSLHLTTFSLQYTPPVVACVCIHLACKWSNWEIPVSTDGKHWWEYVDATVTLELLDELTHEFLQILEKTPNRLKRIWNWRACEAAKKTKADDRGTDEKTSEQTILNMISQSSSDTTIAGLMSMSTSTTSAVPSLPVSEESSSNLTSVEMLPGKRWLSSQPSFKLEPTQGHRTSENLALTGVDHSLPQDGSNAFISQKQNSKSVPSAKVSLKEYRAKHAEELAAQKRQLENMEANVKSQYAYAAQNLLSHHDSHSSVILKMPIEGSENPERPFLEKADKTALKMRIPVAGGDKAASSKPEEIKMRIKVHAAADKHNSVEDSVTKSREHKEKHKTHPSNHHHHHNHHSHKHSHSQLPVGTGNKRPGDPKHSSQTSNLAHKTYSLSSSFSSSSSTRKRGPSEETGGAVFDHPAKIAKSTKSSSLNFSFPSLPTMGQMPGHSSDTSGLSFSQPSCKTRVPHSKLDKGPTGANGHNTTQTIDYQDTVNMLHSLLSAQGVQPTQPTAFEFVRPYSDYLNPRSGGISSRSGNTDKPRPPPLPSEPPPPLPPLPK
CDK7/cyclinH/MAT1 complex, sequence (P50613 whole entry, species assumed): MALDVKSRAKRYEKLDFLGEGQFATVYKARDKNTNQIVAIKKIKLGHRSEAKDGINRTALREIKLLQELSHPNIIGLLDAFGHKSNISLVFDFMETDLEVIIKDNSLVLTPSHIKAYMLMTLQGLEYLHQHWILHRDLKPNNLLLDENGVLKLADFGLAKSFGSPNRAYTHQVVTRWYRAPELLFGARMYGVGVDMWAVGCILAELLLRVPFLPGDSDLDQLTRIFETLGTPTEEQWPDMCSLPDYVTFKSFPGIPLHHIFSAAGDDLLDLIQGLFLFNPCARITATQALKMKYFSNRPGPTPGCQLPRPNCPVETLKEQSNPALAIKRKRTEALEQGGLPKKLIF
CDK7/cyclinH/MAT1 complex, sequence (P51946 whole entry partner, species assumed): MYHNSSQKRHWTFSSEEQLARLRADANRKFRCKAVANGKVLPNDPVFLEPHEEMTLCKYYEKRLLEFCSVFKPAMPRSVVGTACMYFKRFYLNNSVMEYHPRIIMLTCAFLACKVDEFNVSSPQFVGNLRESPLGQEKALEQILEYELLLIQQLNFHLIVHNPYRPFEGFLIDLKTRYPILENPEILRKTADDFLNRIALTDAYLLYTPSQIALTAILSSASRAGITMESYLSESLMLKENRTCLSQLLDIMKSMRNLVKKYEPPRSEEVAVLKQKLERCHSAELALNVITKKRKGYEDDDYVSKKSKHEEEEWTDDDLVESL
CDK7/cyclinH/MAT1 complex, sequence (P51948 whole entry partner, species assumed): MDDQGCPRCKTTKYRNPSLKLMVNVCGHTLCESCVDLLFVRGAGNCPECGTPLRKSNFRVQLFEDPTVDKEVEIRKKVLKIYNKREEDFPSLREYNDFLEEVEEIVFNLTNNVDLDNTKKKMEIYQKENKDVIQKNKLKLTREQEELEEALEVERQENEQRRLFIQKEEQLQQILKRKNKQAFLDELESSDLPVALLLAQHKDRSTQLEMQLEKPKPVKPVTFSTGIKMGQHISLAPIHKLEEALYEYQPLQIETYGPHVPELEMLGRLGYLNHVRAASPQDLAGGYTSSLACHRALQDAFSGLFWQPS

| Structure (SMILES) | IC50 [2] [nM] | Papp B→A at 2 h, 5 μM [3] [×10⁻⁶ cm/s] | efflux ratio at 2 h, 5 μM [3] | Papp A→B at 2 h, 5 μM [3] [×10⁻⁶ cm/s] | IC50 (CDK9/cyclinT1 complex) [nM] | IC50 [1] [nM] |
| --- | --- | --- | --- | --- | --- | --- |
| CP(C)(=O)c1cccc2c(-c3nc(NCC(F)(F)CO)ncc3C(F)(F)F)c[nH]c12 [Compound 102, (3-(2-((2,2-difluoro-3-hydroxypropyl)amino)-5-(trifluoromethyl)pyrimidin-4-yl)-1H-indole-7-yl)dimethylphosphine oxide] | < 20 | 26.8 | 7.8 | 3.43 | > 50000 | < 20 |
| CP(C)(=O)c1cccc2c(-c3nc(NC4(CO)COC4)ncc3C(F)(F)F)c[nH]c12 [Compound 114, (3-(2-((3-(hydroxymethyl)oxetan-3-yl)amino)-5-(trifluoromethyl)pyrimidin-4-yl)-1H-indole-7-yl)dimethylphosphine oxide] | < 20 | 25.4 | 31.9 | 0.8 | > 50000 | < 20 |
| CP(C)(=O)c1cccc2c(-c3nc(NC45CC(O)(C4)C5)ncc3C(F)(F)F)c[nH]c12 [Compound 174, (3-(2-((3-hydroxybicyclo[1.1.1]pentan-1-yl)amino)-5-(trifluoromethyl)pyrimidin-4-yl)-1H-indole-7-yl)dimethylphosphine oxide] | < 20 | 34.8 | 17.1 | 2.03 | 5000 to 50000 | < 20 |
| CP(C)(=O)c1cccc2c(-c3nc(NCC4CC4CO)ncc3C(F)(F)F)c[nH]c12 (single isomer, unassigned) [Compound 143] | < 20 | 32.5 | 13.3 | 2.44 | > 50000 | 20 to 200 |
| CP(C)(=O)c1cccc2c(-c3nc(NC4(CO)CC(F)(F)C4)ncc3C(F)(F)F)c[nH]c12 [Compound 96, (3-(2-((3,3-difluoro-1-(hydroxymethyl)cyclobutyl)amino)-5-(trifluoromethyl)pyrimidin-4-yl)-1H-indole-7-yl)dimethylphosphine oxide] | 20 to 200 | 26.1 | 14.1 | 1.86 | > 50000 | < 20 |
| C[C@@H](CO)Nc1ncc(C(F)(F)F)c(-c2c[nH]c3c(P(C)(C)=O)c(F)ccc23)n1 [Compound 195] | < 20 | 24.4 | 2.36 | 10.3 | > 50000 | < 20 |
| CP(C)(=O)c1cccc2c(-c3nc(NC4(CO)CC(F)C4)ncc3C(F)(F)F)c[nH]c12 (stereo not drawn) [Compound 105, (3-(2-((3-fluoro-1-(hydroxymethyl)cyclobutyl)amino)-5-(trifluoromethyl)pyrimidin-4-yl)-1H-indole-7-yl)dimethylphosphine oxide] | 20 to 200 | 21.9 | 7.32 | 2.99 | > 50000 | 20 to 200 |
| CC(O)[C@H](C)Nc1ncc(C(F)(F)F)c(-c2c[nH]c3c(P(C)(C)=O)cccc23)n1 (single isomer, unassigned) [Compound 129] | < 20 | 32.4 | 6.76 | 4.8 | > 50000 | 20 to 200 |
| CP(C)(=O)c1cccc2c(-c3nc(N[C@@H]4CCC[C@H]4O)ncc3C(F)(F)F)c[nH]c12 [Compound 156] | 20 to 200 | 20.6 | 3.87 | 5.32 | 5000 to 50000 | < 20 |
| C[C@@H](CO)Nc1ncc(C(F)(F)F)c(-c2c[nH]c3c(P(C)(C)=O)cc(F)cc23)n1 [Compound 158] | < 20 | 28.6 | 5.65 | 5.07 | > 50000 | < 20 |

Second part, led by results:

| IC50 [2] [nM] | Papp B→A at 2 h, 5 μM [3] [×10⁻⁶ cm/s] | efflux ratio at 2 h, 5 μM [3] | Papp A→B at 2 h, 5 μM [3] [×10⁻⁶ cm/s] | IC50 (CDK9/cyclinT1 complex) [nM] | Structure (SMILES) | IC50 [1] [nM] |
| --- | --- | --- | --- | --- | --- | --- |
| < 20 | 32.8 | 7.8 | 4.2 | > 50000 | CC(CO)CNc1ncc(C(F)(F)F)c(-c2c[nH]c3c(P(C)(C)=O)cccc23)n1 (single isomer, unassigned) [Compound 149] | < 20 |
| < 20 | 32.3 | 20.8 | 1.55 | > 50000 | CP(C)(=O)c1cccc2c(-c3nc(NCCO)ncc3C(F)(F)F)c[nH]c12 [Compound 97, (3-(2-((2-hydroxyethyl)amino)-5-(trifluoromethyl)pyrimidin-4-yl)-1H-indole-7-yl)dimethylphosphine oxide] | 20 to 200 |
| < 20 | 25.1 | 37.1 | 0.68 | > 50000 | CP(C)(=O)c1cccc2c(-c3nc(N[C@H]4COC[C@@H]4O)ncc3C(F)(F)F)c[nH]c12 [Compound 87] | < 20 |
| < 20 | 30.6 | 14.3 | 2.13 | > 50000 | CP(C)(=O)c1cccc2c(-c3nc(NCCCO)ncc3C(F)(F)F)c[nH]c12 [Compound 89, (3-(2-((3-hydroxypropyl)amino)-5-(trifluoromethyl)pyrimidin-4-yl)-1H-indole-7-yl)dimethylphosphine oxide] | < 20 |
| < 20 | 29.2 | 7.77 | 3.76 | > 50000 | CC[C@@H](CO)Nc1ncc(C(F)(F)F)c(-c2c[nH]c3c(P(C)(C)=O)cccc23)n1 [Compound 88, (S)-(3-(2-((1-hydroxybutan-2-yl)amino)-5-(trifluoromethyl)pyrimidin-4-yl)-1H-indole-7-yl)dimethylphosphine oxide] | 20 to 200 |
| < 20 | 27.3 | 10.3 | 2.64 | > 50000 | CC1(C)COCC(Nc2ncc(C(F)(F)F)c(-c3c[nH]c4c(P(C)(C)=O)cccc34)n2)CN1 (single isomer, unassigned) [Compound 91, (3-(2-((3,3-dimethyl-1,4-oxazepan-6-yl)amino)-5-(trifluoromethyl)pyrimidin-4-yl)-1H-indole-7-yl)dimethylphosphine oxide] | 20 to 200 |
| < 20 | 26.4 | 5.97 | 4.42 | 5000 to 50000 | CP(C)(=O)c1cccc2c(-c3nc(N[C@H]4CC[C@@H]4O)ncc3C(F)(F)F)c[nH]c12 [Compound 154, (3-(2-(((1S,2S)-2-hydroxycyclobutyl)amino)-5-(trifluoromethyl)pyrimidin-4-yl)-1hydro-indole-7-yl)dimethylphosphine oxide] | < 20 |
| < 20 | 33.8 | 16 | 2.11 | > 50000 | CP(C)(=O)c1cccc2c(-c3nc(NC4(CO)CCOC4)ncc3C(F)(F)F)c[nH]c12 (single isomer, unassigned) [Compound 118] | < 20 |
| < 20 | 24.8 | 5.94 | 4.17 | > 50000 | CP(C)(=O)c1cccc2c(-c3nc(N[C@@H]4CC[C@H]4O)ncc3C(F)(F)F)c[nH]c12 [Compound 153, (3-(2-(((1R,2R)-2-hydroxycyclobutyl)amino)-5-(trifluoromethyl)pyrimidin-4-yl)-1hydro-indole-7-yl)dimethylphosphine oxide] | < 20 |
| < 20 | 27 | 7.64 | 3.53 | > 50000 | C[C@H](CO)Nc1ncc(C(F)(F)F)c(-c2c[nH]c3c(P(C)(C)=O)cccc23)n1 [Compound 93, (R)-(3-(2-((1-hydroxypropyl-2-yl)amino)-5-(trifluoromethyl)pyrimidin-4-yl)-1H-indole-7-yl)dimethylphosphine oxide] | < 20 |
